Source: ChEMBL document CHEMBL3885861, “Open TG-GATES”

Species: Rattus norvegicus
Experiment: Open TG-GATES - Regimen: Single
Format: toxicity, organism-based, Sprague-Dawley
Parameters: regimen Single, gender Male, age 6 weeks
Conditions: in vivo, po, 0 mg/kg, route gavage, dose level Control; for APTT / Bas / Eos / Fbg / Hb / Ht / Lym / MCH / MCHC / MCV / Mono / Neu / PT / Plat / RBC / Ret / WBC: tissue Blood; for KIDNEY_L / KIDNEY_R / KIDNEY_TOTAL: tissue Kidney; for LIVER: tissue Liver; for A/G / ALP / ALT / AST / BUN / CRE / Ca / Cl / DBIL / GLC / IP / K / LDH / Na / PL / RALB / TBIL / TC / TG / TP / gamma-GTP: tissue Plasma

SMILES: C[C@H]1O[C@H](O[C@H]2[C@H](O)[C@@H](O)[C@@H](O[C@H]3[C@H](O)[C@@H](O)C(O)O[C@@H]3CO)O[C@@H]2CO)[C@H](O)[C@@H](O)[C@@H]1N[C@H]1C=C(CO)[C@@H](O)[C@H](O)[C@H]1O (some centres not stated) [ACARBOSE]
- TERMINAL_BW (3 h): 196.9 g
- APTT (3 h): 16.9 s
- Bas (3 h): 0.2%
- Eos (3 h): 0.8%
- Fbg (3 h): 275 mg/dL
- Hb (3 h): 13.4 g/dL
- Ht (3 h): 41.3%
- Lym (3 h): 78.6%
- MCH (3 h): 20.8 pg
- MCHC (3 h): 32.6%
- MCV (3 h): 63.7 fL
- Mono (3 h): 2.6%
- Neu (3 h): 16.8%
- PT (3 h): 13.6 s
- Plat (3 h): 116.5 x10_4/uL
- RBC (3 h): 647.8 x10_4/ul
- Ret (3 h): 8.1%
- WBC (3 h): 97.1 x10_2/uL
- KIDNEY_L (3 h): 0.9 g
- KIDNEY_R (3 h): 0.9 g
- KIDNEY_TOTAL (3 h): 1.8 g
- LIVER (3 h): 8.8 g
- A/G (3 h): 0.9
- ALP (3 h): 1499.8 IU/L
- ALT (3 h): 36 IU/L
- AST (3 h): 72.6 IU/L
- BUN (3 h): 10.4 mg/dL
- CRE (3 h): 0.2 mg/dL
- Ca (3 h): 10.7 mg/dL
- Cl (3 h): 105.2 meq/L
- DBIL (3 h): 0.006 mg/dL
- GLC (3 h): 174.6 mg/dL
- IP (3 h): 9.5 mg/dL
- K (3 h): 4 meq/L
- LDH (3 h): 58.2 IU/L
- Na (3 h): 141.4 meq/L
- PL (3 h): 133 mg/dL
- RALB (3 h): 2.5 g/dL
- TBIL (3 h): 0.06 mg/dL
- TC (3 h): 73.6 mg/dL
- TG (3 h): 46.8 mg/dL
- TP (3 h): 5.2 g/dL
- gamma-GTP (3 h): 1 IU/L
- TERMINAL_BW (6 h): 197.1 g
- APTT (6 h): 17.2 s
- Bas (6 h): 0.2%
- Eos (6 h): 0.6%
- Fbg (6 h): 286 mg/dL
- Hb (6 h): 13.2 g/dL
- Ht (6 h): 40.8%
- Lym (6 h): 73.6%
- MCH (6 h): 21 pg
- MCHC (6 h): 32.3%
- MCV (6 h): 64.9 fL
- Mono (6 h): 2.6%
- Neu (6 h): 22.4%
- PT (6 h): 13.7 s
- Plat (6 h): 125.4 x10_4/uL
- RBC (6 h): 629.8 x10_4/ul
- Ret (6 h): 8.4%
- WBC (6 h): 74.2 x10_2/uL
- KIDNEY_L (6 h): 0.9 g
- KIDNEY_R (6 h): 0.9 g
- KIDNEY_TOTAL (6 h): 1.9 g
- LIVER (6 h): 8.2 g
- A/G (6 h): 0.9
- ALP (6 h): 1467.2 IU/L
- ALT (6 h): 35.2 IU/L
- AST (6 h): 72.2 IU/L
- BUN (6 h): 8.8 mg/dL
- CRE (6 h): 0.2 mg/dL
- Ca (6 h): 10.5 mg/dL
- Cl (6 h): 104.6 meq/L
- DBIL (6 h): 0.004 mg/dL
- GLC (6 h): 166 mg/dL
- IP (6 h): 10.4 mg/dL
- K (6 h): 3.7 meq/L
- LDH (6 h): 65 IU/L
- Na (6 h): 141.6 meq/L
- PL (6 h): 136.8 mg/dL
- RALB (6 h): 2.5 g/dL
- TBIL (6 h): 0.064 mg/dL
- TC (6 h): 73.4 mg/dL
- TG (6 h): 72.4 mg/dL
- TP (6 h): 5.2 g/dL
- gamma-GTP (6 h): 1.4 IU/L
- TERMINAL_BW (9 h): 198.4 g
- APTT (9 h): 18.3 s
- Bas (9 h): 0%
- Eos (9 h): 0.8%
- Fbg (9 h): 306.6 mg/dL
- Hb (9 h): 13.2 g/dL
- Ht (9 h): 40.7%
- Lym (9 h): 75.2%
- MCH (9 h): 20.9 pg
- MCHC (9 h): 32.3%
- MCV (9 h): 64.8 fL
- Mono (9 h): 1.8%
- Neu (9 h): 21%
- PT (9 h): 13.6 s
- Plat (9 h): 122.9 x10_4/uL
- RBC (9 h): 629.4 x10_4/ul
- Ret (9 h): 8.4%
- WBC (9 h): 90.2 x10_2/uL
- KIDNEY_L (9 h): 0.9 g
- KIDNEY_R (9 h): 0.9 g
- KIDNEY_TOTAL (9 h): 1.8 g
- LIVER (9 h): 8.1 g
- A/G (9 h): 0.9
- ALP (9 h): 1467.6 IU/L
- ALT (9 h): 35.2 IU/L
- AST (9 h): 69.4 IU/L
- BUN (9 h): 8.6 mg/dL
- CRE (9 h): 0.2 mg/dL
- Ca (9 h): 10.4 mg/dL
- Cl (9 h): 104.2 meq/L
- DBIL (9 h): 0.006 mg/dL
- GLC (9 h): 177.8 mg/dL
- IP (9 h): 10.2 mg/dL
- K (9 h): 3.9 meq/L
- LDH (9 h): 63.8 IU/L
- Na (9 h): 140.8 meq/L
- PL (9 h): 133.6 mg/dL
- RALB (9 h): 2.5 g/dL
- TBIL (9 h): 0.06 mg/dL
- TC (9 h): 73.6 mg/dL
- TG (9 h): 52.4 mg/dL
- TP (9 h): 5.2 g/dL
- gamma-GTP (9 h): 1.2 IU/L
- TERMINAL_BW (24 h): 211.4 g
- APTT (24 h): 19.4 s
- Bas (24 h): 0%
- Eos (24 h): 1%
- Fbg (24 h): 269.6 mg/dL
- Hb (24 h): 13.2 g/dL
- Ht (24 h): 40.1%
- Lym (24 h): 73.6%
- MCH (24 h): 20.7 pg
- MCHC (24 h): 32.8%
- MCV (24 h): 63 fL
- Mono (24 h): 3.2%
- Neu (24 h): 21.4%
- PT (24 h): 13.1 s
- Plat (24 h): 113.4 x10_4/uL
- RBC (24 h): 636.6 x10_4/ul
- Ret (24 h): 7.9%
- WBC (24 h): 81.7 x10_2/uL
- KIDNEY_L (24 h): 1 g
- KIDNEY_R (24 h): 0.9 g
- KIDNEY_TOTAL (24 h): 1.9 g
- LIVER (24 h): 9.8 g
- A/G (24 h): 0.9
- ALP (24 h): 1381.8 IU/L
- ALT (24 h): 42.2 IU/L
- AST (24 h): 71.6 IU/L
- BUN (24 h): 14.2 mg/dL
- CRE (24 h): 0.2 mg/dL
- Ca (24 h): 10.7 mg/dL
- Cl (24 h): 103.8 meq/L
- DBIL (24 h): 0.006 mg/dL
- GLC (24 h): 175.8 mg/dL
- IP (24 h): 8.3 mg/dL
- K (24 h): 3.9 meq/L
- LDH (24 h): 60.8 IU/L
- Na (24 h): 141.4 meq/L
- PL (24 h): 139.8 mg/dL
- RALB (24 h): 2.5 g/dL
- TBIL (24 h): 0.062 mg/dL
- TC (24 h): 78 mg/dL
- TG (24 h): 59.2 mg/dL
- TP (24 h): 5.3 g/dL
- gamma-GTP (24 h): 1 IU/L
